# Measurements published in ChEMBL document CHEMBL1144019 (Bioorg Med Chem, 2008).
# Tests used:
# Type in all cases: functional
# Escherichia coli [1] = experiment: Antibacterial activity against Toho 2 producing Escherichia coli by standard serial agar dilution method
# Streptococcus pneumoniae = experiment: Antibacterial activity against penicillin-resistant Streptococcus pneumoniae SR-16675 by standard serial agar dilution method
# Moraxella catarrhalis = experiment: Antibacterial activity against Moraxella catarrhalis ATCC 43617 by standard serial agar dilution method
# Staphylococcus aureus = experiment: Antibacterial activity against Staphylococcus aureus Smith by standard serial agar dilution method
# Enterobacter cloacae [2] = experiment: Antibacterial activity against Enterobacter cloacae ATCC 13047 by standard serial agar dilution method
# Enterobacter cloacae [3] = experiment: Antibacterial activity against AmpC producing Enterobacter cloacae SR-4321 by standard serial agar dilution method
# Pseudomonas aeruginosa [4] = experiment: Antibacterial activity against imipenem-resistant Pseudomonas aeruginosa SR-6554 by standard serial agar dilution method
# Pseudomonas aeruginosa [5] = experiment: Antibacterial activity against Pseudomonas aeruginosa SR24 by standard serial agar dilution method
# Haemophilus influenzae [6] = experiment: Antibacterial activity against beta-lactamase negative ampicillin-resistant Haemophilus influenzae SR-11435 by standard serial agar dilution method
# Pseudomonas aeruginosa [7] = experiment: Antibacterial activity against AmpC hyperproducing Pseudomonas aeruginosa SR24-12 by standard serial agar dilution method
# Escherichia coli [8] = experiment: Antibacterial activity against Escherichia coli SR-21003 by standard serial agar dilution method
# Haemophilus influenzae [9] = experiment: Antibacterial activity against Haemophilus influenzae ATCC 49766 by standard serial agar dilution method
# Pseudomonas aeruginosa [10] = experiment: Antibacterial activity against Pseudomonas aeruginosa SR-5393 by standard serial agar dilution method
SMILES,MIC (Escherichia coli [1]),MIC (Streptococcus pneumoniae),MIC (Moraxella catarrhalis),MIC (Staphylococcus aureus),MIC (Enterobacter cloacae [2]),MIC (Enterobacter cloacae [3]),MIC (Pseudomonas aeruginosa [4]),MIC (Pseudomonas aeruginosa [5]),MIC (Haemophilus influenzae [6]),MIC (Pseudomonas aeruginosa [7]),MIC (Escherichia coli [8]),MIC (Haemophilus influenzae [9]),MIC (Pseudomonas aeruginosa [10])
CNCCn1ccc2c[n+](CC3=C(C(=O)[O-])N4C(=O)[C@@H](NC(=O)/C(=N\O[C@@H](C)C(=O)O)c5nc(N)sc5Cl)[C@H]4SC3)ccc21,2 µg/mL,4 µg/mL,0.032 µg/mL,4 µg/mL,0.5 µg/mL,8 µg/mL,8 µg/mL,1 µg/mL,0.125 µg/mL,4 µg/mL,0.25 µg/mL,0.032 µg/mL,2 µg/mL
C[C@H](O/N=C(\C(=O)N[C@@H]1C(=O)N2C(C(=O)[O-])=C(C[n+]3cccc4c3ccn4CCOC(N)=O)CS[C@H]12)c1nc(N)sc1Cl)C(=O)O,2 µg/mL,2 µg/mL,0.032 µg/mL,2 µg/mL,0.25 µg/mL,2 µg/mL,8 µg/mL,0.5 µg/mL,0.063 µg/mL,4 µg/mL,0.25 µg/mL,0.032 µg/mL,2 µg/mL
COC(=O)NCCn1ccc2c1ccc[n+]2CC1=C(C(=O)[O-])N2C(=O)[C@@H](NC(=O)/C(=N\O[C@@H](C)C(=O)O)c3nc(N)sc3Cl)[C@H]2SC1,4 µg/mL,4 µg/mL,0.032 µg/mL,4 µg/mL,1 µg/mL,4 µg/mL,16 µg/mL,2 µg/mL,0.063 µg/mL,8 µg/mL,0.5 µg/mL,0.032 µg/mL,8 µg/mL
C[C@H](O/N=C(\C(=O)N[C@@H]1C(=O)N2C(C(=O)[O-])=C(C[n+]3cccc4c3ccn4C)CS[C@H]12)c1nc(N)sc1Cl)C(=O)O,1 µg/mL,2 µg/mL,0.016 µg/mL,1 µg/mL,0.25 µg/mL,1 µg/mL,16 µg/mL,0.5 µg/mL,0.032 µg/mL,4 µg/mL,0.125 µg/mL,0.016 µg/mL,2 µg/mL
CNCCn1ncc2c1ccc[n+]2CC1=C(C(=O)[O-])N2C(=O)[C@@H](NC(=O)/C(=N\O[C@@H](C)C(=O)O)c3nc(N)sc3Cl)[C@H]2SC1,4 µg/mL,4 µg/mL,0.032 µg/mL,4 µg/mL,1 µg/mL,4 µg/mL,16 µg/mL,1 µg/mL,0.125 µg/mL,8 µg/mL,1 µg/mL,0.125 µg/mL,4 µg/mL
C[C@H](O/N=C(\C(=O)N[C@@H]1C(=O)N2C(C(=O)[O-])=C(C[n+]3cccc4c3nc(N)n4C3CCNCC3)CS[C@H]12)c1nc(N)sc1Cl)C(=O)O,2 µg/mL,2 µg/mL,0.016 µg/mL,2 µg/mL,0.25 µg/mL,2 µg/mL,4 µg/mL,0.5 µg/mL,0.063 µg/mL,2 µg/mL,0.25 µg/mL,0.016 µg/mL,2 µg/mL
C[C@H](O/N=C(\C(=O)N[C@@H]1C(=O)N2C(C(=O)[O-])=C(C[n+]3cccc4c3ccn4CCNS(N)(=O)=O)CS[C@H]12)c1nc(N)sc1Cl)C(=O)O,2 µg/mL,2 µg/mL,0.016 µg/mL,2 µg/mL,0.5 µg/mL,4 µg/mL,8 µg/mL,1 µg/mL,0.063 µg/mL,4 µg/mL,0.25 µg/mL,0.032 µg/mL,4 µg/mL
CNCCCn1c(N)cc2c1ccc[n+]2CC1=C(C(=O)[O-])N2C(=O)[C@@H](NC(=O)/C(=N\O[C@@H](C)C(=O)O)c3nc(N)sc3Cl)[C@H]2SC1,2 µg/mL,4 µg/mL,0.016 µg/mL,1 µg/mL,0.5 µg/mL,2 µg/mL,16 µg/mL,0.5 µg/mL,0.063 µg/mL,2 µg/mL,0.25 µg/mL,0.016 µg/mL,2 µg/mL
C[C@H](O/N=C(\C(=O)N[C@@H]1C(=O)N2C(C(=O)[O-])=C(C[n+]3cccc4c3nc(N)n4[C@H]3CCNC3)CS[C@H]12)c1nc(N)sc1Cl)C(=O)O,2 µg/mL,2 µg/mL,0.016 µg/mL,4 µg/mL,0.5 µg/mL,2 µg/mL,8 µg/mL,0.5 µg/mL,0.125 µg/mL,2 µg/mL,0.25 µg/mL,0.032 µg/mL,2 µg/mL
C[C@H](O/N=C(\C(=O)N[C@@H]1C(=O)N2C(C(=O)[O-])=C(C[n+]3cccc4c3ccn4CCO)CS[C@H]12)c1nc(N)sc1Cl)C(=O)O,2 µg/mL,4 µg/mL,0.016 µg/mL,2 µg/mL,0.5 µg/mL,4 µg/mL,16 µg/mL,1 µg/mL,0.063 µg/mL,8 µg/mL,0.25 µg/mL,0.032 µg/mL,4 µg/mL
